Two compounds from ChEMBL document CHEMBL4680246, “Design, synthesis and biological evaluation of novel O-carbamoyl ferulamide derivatives as multi-target-directed ligands for the treatment of Alzheimer's disease” (Eur J Med Chem, 2020) can be followed below.

A short description of data set [1]: Effect on spontaneous alteration behavior in mouse assessed as change in total arm entry at 6 mg/kg by Y-maze test. It is filed as ADME, organism-based. The conditions noted are these: in vivo.
Data set [2] has as its system Mus musculus. Put plainly: Improvement in cognitive impairment in scopolamine-induced mouse model of amnesia assessed as change in spontaneous alteration at 6 mg/kg by Y-maze test (reference value: 40.8%). Type of data set: functional.
Data set [3] concerns the target T1, Cholinesterase (Homo sapiens, UniProt P06276). Put plainly: Inhibition of human serum BuChE assessed as residual activity at IC50 using acetylcholine iodide as substrate measured by Ellman's method relative to control. In general terms: DTNB colorimetry detects thiols as they appear.
In data set [4] the target is T1, Cholinesterase. Put plainly: Pseudo-irreversible inhibition of human serum BuChE assessed as residual activity at 0.1 times IC50 using acetylcholine iodide as substrate measured 240 mins post dilution by Ellman's method relative to control.
The test system of data set [5] is Mus musculus. Put plainly: Improvement in brain cholinergic activity in scopolamine-induced mouse model of amnesia assessed as change in ChAT vitality at 6 mg/kg (reference value: 28.8 U/g). It is filed as functional.
Data set [6] has as its target T1, Cholinesterase. Put plainly: Inhibition of human serum BuChE assessed as residual activity at 0.1 times IC50 using acetylcholine iodide as substrate measured after dilution by Ellman's method relative to control.
The nature of data set [7]: Drug uptake in iv dosed mouse striatum measured after 60 mins in presence of rivastigmine by PET imaging analysis. The following applies: in vivo, 1 h. It is filed as ADME, organism-based.
The nature of data set [8]: Drug uptake in iv dosed mouse liver measured after 30 mins by PET imaging analysis. It is filed as ADME, organism-based. The following applies: in vivo, 0.5 h.
The nature of data set [9]: Drug uptake in iv dosed mouse brainstem measured after 60 mins in presence of rivastigmine by PET imaging analysis. It is filed as ADME, organism-based. The following applies: in vivo, 1 h.
A short description of data set [10]: Drug uptake in iv dosed mouse cortex measured after 60 mins in presence of rivastigmine by PET imaging analysis. It is filed as ADME, organism-based. The conditions noted are these: in vivo, 1 h.
The nature of data set [11]: Drug uptake in iv dosed mouse brainstem measured after 60 mins in presence of (E)-4-(3-(3,4-dihydroisoquinolin-2(1H)-yl)-3-oxoprop-1-en-1-yl)-2-methoxyphenyl ethyl(methyl)carbamate by PET imaging analysis. It is filed as ADME, organism-based. The conditions noted are these: in vivo.
A short description of data set [12]: Drug uptake in iv dosed mouse amygdala measured after 60 mins in presence of rivastigmine by PET imaging analysis. It is filed as ADME, organism-based. The following applies: in vivo, 1 h.
Data set [13] is described as follows: Drug uptake in iv dosed mouse cortex measured after 60 mins in presence of (E)-4-(3-(3,4-dihydroisoquinolin-2(1H)-yl)-3-oxoprop-1-en-1-yl)-2-methoxyphenyl ethyl(methyl)carbamate by PET imaging analysis. Type of data set: ADME, organism-based. The following applies: in vivo.
Data set [14] can be described thus: Drug uptake in iv dosed mouse hippocampus measured after 60 mins in presence of rivastigmine by PET imaging analysis. Type of data set: ADME, organism-based. The following applies: in vivo, 1 h.
The nature of data set [15]: Drug uptake in iv dosed mouse amygdala measured after 60 mins in presence of (E)-4-(3-(3,4-dihydroisoquinolin-2(1H)-yl)-3-oxoprop-1-en-1-yl)-2-methoxyphenyl ethyl(methyl)carbamate by PET imaging analysis. The following applies: in vivo. It is filed as ADME, organism-based.
A short description of data set [16]: Drug uptake in iv dosed mouse hypothalamus measured after 60 mins in presence of rivastigmine by PET imaging analysis. The following applies: in vivo, 1 h. Type of data set: ADME, organism-based.
The nature of data set [17]: Drug uptake in iv dosed mouse striatum measured after 60 mins in presence of (E)-4-(3-(3,4-dihydroisoquinolin-2(1H)-yl)-3-oxoprop-1-en-1-yl)-2-methoxyphenyl ethyl(methyl)carbamate by PET imaging analysis. Type of data set: ADME, organism-based. The following applies: in vivo.
Data set [18] in a line: Drug uptake in iv dosed mouse cerebellum measured after 60 mins in presence of (E)-4-(3-(3,4-dihydroisoquinolin-2(1H)-yl)-3-oxoprop-1-en-1-yl)-2-methoxyphenyl ethyl(methyl)carbamate by PET imaging analysis. It is filed as ADME, organism-based. The conditions noted are these: in vivo.
A short description of data set [19]: Drug uptake in iv dosed mouse heart measured after 5 mins by PET imaging analysis. The conditions noted are these: in vivo. It is filed as ADME, organism-based.
Data set [20] is described as follows: Drug uptake in iv dosed mouse hippocampus measured after 60 mins by PET imaging analysis. It is filed as ADME, organism-based. The conditions noted are these: in vivo, 1 h.
The nature of data set [21]: Drug uptake in iv dosed mouse thalamus measured after 60 mins in presence of (E)-4-(3-(3,4-dihydroisoquinolin-2(1H)-yl)-3-oxoprop-1-en-1-yl)-2-methoxyphenyl ethyl(methyl)carbamate by PET imaging analysis. It is filed as ADME, organism-based. The conditions noted are these: in vivo.
Data set [22] is described as follows: Drug uptake in iv dosed mouse brain measured up to 60 mins in presence of (E)-4-(3-(3,4-dihydroisoquinolin-2(1H)-yl)-3-oxoprop-1-en-1-yl)-2-methoxyphenyl ethyl(methyl)carbamate by PET imaging analysis. It is filed as ADME, organism-based. The conditions noted are these: in vivo.
Data set [23] is described as follows: Drug uptake in iv dosed mouse amygdala measured after 60 mins by PET imaging analysis. Type of data set: ADME, organism-based. The conditions noted are these: in vivo, 1 h.
The nature of data set [24]: Drug uptake in iv dosed mouse cerebellum measured after 60 mins in presence of rivastigmine by PET imaging analysis. It is filed as ADME, organism-based. The following applies: in vivo, 1 h.
The nature of data set [25]: Drug uptake in iv dosed mouse brain measured after 5 mins by PET imaging analysis. Type of data set: ADME, organism-based. The conditions noted are these: in vivo.
The nature of data set [26]: Drug uptake in iv dosed mouse cerebellum measured after 60 mins by PET imaging analysis. Type of data set: ADME, organism-based. The conditions noted are these: in vivo, 1 h.
A short description of data set [27]: Drug uptake in iv dosed mouse brainstem measured after 60 mins by PET imaging analysis. It is filed as ADME, organism-based. The conditions noted are these: in vivo, 1 h.
Data set [28] is described as follows: Drug uptake in iv dosed mouse cortex measured after 60 mins by PET imaging analysis. The conditions noted are these: in vivo, 1 h. Type of data set: ADME, organism-based.
Data set [29] can be described thus: Drug uptake in iv dosed mouse brain measured up to 60 mins in presence of rivastigmine by PET imaging analysis. The conditions noted are these: in vivo, 1 h. Type of data set: ADME, organism-based.
Data set [30] can be described thus: Drug uptake in iv dosed mouse lung measured after 5 mins by PET imaging analysis. It is filed as ADME, organism-based. The following applies: in vivo.
The nature of data set [31]: Drug uptake in iv dosed mouse central gray substance of midbrain measured after 60 mins in presence of rivastigmine by PET imaging analysis. It is filed as ADME, organism-based. The conditions noted are these: in vivo, 1 h.
Data set [32] in a line: Drug uptake in iv dosed mouse hypothalamus measured after 60 mins by PET imaging analysis. It is filed as ADME, organism-based. The following applies: in vivo, 1 h.
Data set [33] can be described thus: Drug uptake in iv dosed mouse brain measured at 2 mins by PET imaging analysis. It is filed as ADME, organism-based. The conditions noted are these: in vivo.
Data set [34] in a line: Drug uptake in iv dosed mouse central gray substance of midbrain measured after 60 mins by PET imaging analysis. It is filed as ADME, organism-based. The conditions noted are these: in vivo, 1 h.
A short description of data set [35]: Drug uptake in iv dosed mouse thalamus measured after 60 mins in presence of rivastigmine by PET imaging analysis. It is filed as ADME, organism-based. The conditions noted are these: in vivo, 1 h.
Data set [36] in a line: Drug uptake in iv dosed mouse brain measured after 60 mins by PET imaging analysis. The following applies: in vivo, 1 h. Type of data set: ADME, organism-based.
A short description of data set [37]: Drug uptake in iv dosed mouse hypothalamus measured after 60 mins in presence of (E)-4-(3-(3,4-dihydroisoquinolin-2(1H)-yl)-3-oxoprop-1-en-1-yl)-2-methoxyphenyl ethyl(methyl)carbamate by PET imaging analysis. It is filed as ADME, organism-based. The conditions noted are these: in vivo.
The nature of data set [38]: Drug uptake in iv dosed mouse thalamus measured after 60 mins by PET imaging analysis. It is filed as ADME, organism-based. The following applies: in vivo, 1 h.
The nature of data set [39]: Drug uptake in iv dosed mouse spleen measured after 60 mins by PET imaging analysis. It is filed as ADME, organism-based. The conditions noted are these: in vivo, 1 h.
A short description of data set [40]: Drug uptake in iv dosed mouse central gray substance of midbrain measured after 60 mins in presence of (E)-4-(3-(3,4-dihydroisoquinolin-2(1H)-yl)-3-oxoprop-1-en-1-yl)-2-methoxyphenyl ethyl(methyl)carbamate by PET imaging analysis. Type of data set: ADME, organism-based. The following applies: in vivo.
Data set [41] is described as follows: Drug uptake in iv dosed mouse striatum measured after 60 mins by PET imaging analysis. It is filed as ADME, organism-based. The conditions noted are these: in vivo, 1 h.
Data set [42] is described as follows: Drug uptake in iv dosed mouse hippocampus measured after 60 mins in presence of (E)-4-(3-(3,4-dihydroisoquinolin-2(1H)-yl)-3-oxoprop-1-en-1-yl)-2-methoxyphenyl ethyl(methyl)carbamate by PET imaging analysis. It is filed as ADME, organism-based. The following applies: in vivo.

T1 sequence (P06276 whole entry): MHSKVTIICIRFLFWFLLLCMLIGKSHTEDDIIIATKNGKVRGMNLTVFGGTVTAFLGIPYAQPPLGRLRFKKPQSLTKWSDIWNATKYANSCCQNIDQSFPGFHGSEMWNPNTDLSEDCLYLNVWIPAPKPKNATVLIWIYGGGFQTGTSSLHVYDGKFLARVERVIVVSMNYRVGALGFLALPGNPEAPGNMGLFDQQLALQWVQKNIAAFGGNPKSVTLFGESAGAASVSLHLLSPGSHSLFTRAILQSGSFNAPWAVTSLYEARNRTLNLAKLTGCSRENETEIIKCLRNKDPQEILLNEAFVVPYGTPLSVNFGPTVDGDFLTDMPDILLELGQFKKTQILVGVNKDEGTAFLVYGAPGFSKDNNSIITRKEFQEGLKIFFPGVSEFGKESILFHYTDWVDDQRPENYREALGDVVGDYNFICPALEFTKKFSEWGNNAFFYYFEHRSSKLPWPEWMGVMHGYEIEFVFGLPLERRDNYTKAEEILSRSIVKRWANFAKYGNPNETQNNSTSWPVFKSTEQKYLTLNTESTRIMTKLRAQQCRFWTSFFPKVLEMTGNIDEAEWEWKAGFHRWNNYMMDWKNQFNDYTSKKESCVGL

In the case of `CCN(C)C(=O)Oc1cccc([C@H](C)N(C)C)c1` [RIVASTIGMINE], the Activity result in [1] is “Non-Toxic”; with Mus musculus [2], 60.2%; on Cholinesterase [3], 48.3%; at Cholinesterase [4], 73.3%; with Mus musculus [5], 55.3 U/g; at Cholinesterase [6] it was 53.2%.

Turning to `CCN(C)C(=O)Oc1ccc(/C=C/C(=O)N2CCc3ccccc3C2)cc1O[11CH3]`, the Drug uptake result in [7] is listed as “Not Active”; in data set [8], 14.46 %ID/cc; in data set [9] it was “Not Active”; in [10] it was “Not Active”; in [11], “Not Active”; in [12], “Not Active”. Moreover, the Drug uptake result in data set [13], in [14], in [15], in data set [16], in data set [17] and in [18] was “Not Active” in each case. For the same compound, the Drug uptake in data set [19] is recorded as 11.8 %ID/cc; in data set [20] it was -9 %ID/cc; in [21], “Not Active”; in [22] it was “Not Active”; in data set [23], “Active”; in data set [24], “Not Active”. The Drug uptake in data set [25] is 6.21 %ID/cc; in [26], “Active”; in data set [27], “Active”; in [28] it was “Active”; in data set [29] it was “Not Active”; in [30], 4.68 %ID/cc. Further, the Drug uptake entry in [31] is on record as “Not Active”; in data set [32], “Active”; in data set [33], 8.76 %ID/cc; in data set [34], “Active”; in data set [35], “Not Active”; in data set [36] it was “Active”. The Drug uptake entry in data set [37] was “Not Active”; in data set [38], “Active”; in data set [39], 11.49 %ID/cc; in data set [40], “Not Active”; in data set [41] it was -9 %ID/cc; in data set [42], “Not Active”.
